Values quoted from earlier work, collected in patent US12728096B2, “Pharmaceutical composition comprising enzalutamide” (Synthon B.V., priority 2019, dated 2026).

Experiments:
[1] = pH 1 to 11

CNC(=O)c1ccc(N2C(=S)N(c3ccc(C#N)c(C(F)(F)F)c3)C(=O)C2(C)C)cc1F [Enzalutamide, 4-[3-[4-cyano-3-(trifluoromethyl)phenyl]-5,5-dimethyl-4-oxo-2-sulfanylideneimidazolidin-1-yl]-2-fluoro-N-methylbenzamide]
solubility in water [1]: practically insoluble
permeability (BCS): high permeability
solubility (BCS): low solubility
